≈ marks a conversion by molar mass, not a printed value. Like-named read-outs stand apart in the source and are kept apart here.
Tests used:
[1] = system: NCI-H460 cell line (NSCL cancer); assay: Cell growth inhibition assay (cytotoxicity, cell count); type: cell-based, human; conditions: for IC50: Homo sapiens; for NCl-H460 IC50 (μg/mL) Cell count: H460 cells
Procedure: The compounds of the invention were tested in a cytotoxicity assay on a wide spectrum of tumour cells. By way of example, the cytotoxicity data on the NCI-H460 cell line (NSCL cancer) concerning two compounds of formula (I) are reported, using camptothecin and the drugs Topotecan and SN-38 as references:
H460 Cells from human large cell lung tumor were cultured in RPMI-1640 medium containing 10% foetal calf serum. Cell sensitivity was determined by cell growth inhibition assay after 1 or 72 hr drug exposure. The cells in logarithmic growth were collected and seeded in duplicate in 6-wells plates. […] IC50 is defined as the concentration inhibiting by 50% cell growth compared with untreated controls growth.

[2] = target: T1, human recombinant enzyme (full length top1) (Homo sapiens, UniProt P11387); assay: Topoisomerase-I-dependent DNA rupture assay, persistence of DNA damage; type: biochemical; conditions: 30 min incubation with 10 μM drug
T1 construct: the human recombinant enzyme (full length top1)
T1 sequence (P11387 1-765): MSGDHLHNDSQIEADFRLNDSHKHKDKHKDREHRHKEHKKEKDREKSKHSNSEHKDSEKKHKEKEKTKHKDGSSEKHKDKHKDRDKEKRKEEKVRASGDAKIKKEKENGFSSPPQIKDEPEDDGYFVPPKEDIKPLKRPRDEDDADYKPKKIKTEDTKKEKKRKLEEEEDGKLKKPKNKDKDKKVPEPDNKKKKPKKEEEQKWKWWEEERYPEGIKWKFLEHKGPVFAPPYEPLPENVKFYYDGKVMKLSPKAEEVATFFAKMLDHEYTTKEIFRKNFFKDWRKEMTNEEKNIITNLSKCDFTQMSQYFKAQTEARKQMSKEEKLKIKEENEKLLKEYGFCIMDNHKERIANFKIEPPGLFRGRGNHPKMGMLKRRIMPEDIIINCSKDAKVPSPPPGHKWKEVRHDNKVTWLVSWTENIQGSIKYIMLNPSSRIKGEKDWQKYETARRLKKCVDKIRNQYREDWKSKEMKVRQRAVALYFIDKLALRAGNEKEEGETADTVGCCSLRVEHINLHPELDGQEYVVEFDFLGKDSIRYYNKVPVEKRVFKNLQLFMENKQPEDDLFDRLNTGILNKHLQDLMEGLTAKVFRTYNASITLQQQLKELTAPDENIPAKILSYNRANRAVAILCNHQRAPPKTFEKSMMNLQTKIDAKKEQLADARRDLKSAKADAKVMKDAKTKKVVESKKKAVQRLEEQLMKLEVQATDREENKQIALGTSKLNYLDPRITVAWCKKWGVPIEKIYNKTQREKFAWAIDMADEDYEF

[3] = NCI-H460, read-out: NCl-H460 IC50 (μg/mL) Cell count, H460 cells, 1 or 72 hr drug exposure, counted with Coulter counter 72 hours after exposure
[4] = Time 0 min after adding 0.6 M NaCl
[5] = 1 or 72 hr drug exposure, counted with Coulter counter 72 hours after exposure
[6] = NCI-H460, H460 cells, 1 or 72 hr drug exposure, counted with Coulter counter 72 hours after exposure, read-out: NCl-H460 IC50 (μg/mL) Cell count

## CC[C@@]1(O)C(=O)OCc2c1cc1n(c2=O)C(N=[N+]=[N-])c2cc3ccccc3nc2-1 (single isomer, unassigned) [5-N3-camptothecin Isomer 1, 5-N3-camptothecin 1st diastereomer]
[1]; [3]
  IC50: 4.18 µg/mL (≈ 10.7 µM)

## CC[C@@]1(O)C(=O)OCc2c1cc1n(c2=O)C(F)c2cc3ccccc3nc2-1 (single isomer, unassigned) [5-F-camptothecin Isomer 1, 5-F-camptothecin 1st diastereomer]
[2]; [4]
  Persistence of DNA Damage (%): 100%
[2]; Time 1 min after adding 0.6 M NaCl, listed as 5-F CPT isomers 1
  Persistence of DNA Damage (%): 18%
[2]; Time 5 min after adding 0.6 M NaCl, listed as 5-F CPT isomers 1
  Persistence of DNA Damage (%): 18%
[2]; Time 10 min after adding 0.6 M NaCl, listed as 5-F CPT isomers 1
  Persistence of DNA Damage (%): 10%
[1]; [3]
  IC50: 20.6 µg/mL (≈ 56.2 µM)

## CC[C@@]1(O)C(=O)OCc2c1cc1n(c2=O)C(N(NC(=O)OC(C)(C)C)C(=O)OC(C)(C)C)c2cc3ccccc3nc2-1 (single isomer, unassigned) [5-di-tert-butoxycarbonyl-hydrazinocamptothecin Isomer 2, 5-di-t-butoxycarbonylhydrazino-camptothecin 2nd diastereomer]
[1]; [5]
  NCl-H460 IC50 (μg/mL) Cell count: > 100 µg/mL

## CC[C@@]1(O)C(=O)OCc2c1cc1n(c2=O)C(F)c2cc3ccccc3nc2-1 (single isomer, unassigned) [5-F-camptothecin Isomer 2, 5-F-camptothecin 2nd diastereomer]
[2]; [4]
  Persistence of DNA Damage (%): 100%
[2]; Time 1 min after adding 0.6 M NaCl, listed as 5-F CPT isomers 2
  Persistence of DNA Damage (%): 10%
[2]; Time 5 min after adding 0.6 M NaCl, listed as 5-F CPT isomers 2
  Persistence of DNA Damage (%): 10%
[2]; Time 10 min after adding 0.6 M NaCl, listed as 5-F CPT isomers 2
  Persistence of DNA Damage (%): 13%
[1]; [5]
  NCl-H460 IC50 (μg/mL) Cell count: 20 ± 5.1 µg/mL

## CC[C@@]1(O)C(=O)OCc2c1cc1n(c2=O)C(N)c2cc3ccccc3nc2-1 (stereo partly shown) [5-NH2-camptothecin]
[1]; [6]
  IC50: 11 ± 3.1 µg/mL (≈ 30.3 µM)

## CC[C@@]1(O)C(=O)OCc2c1cc1n(c2=O)C(N=[N+]=[N-])c2cc3ccccc3nc2-1 (single isomer, unassigned) [5-N3 CPT, 5-N3-camptothecin]
[2]; [4]
  Persistence of DNA Damage (%): 100%
[2]; Time 1 min after adding 0.6 M NaCl
  Persistence of DNA Damage (%): 50%
[2]; Time 5 min after adding 0.6 M NaCl
  Persistence of DNA Damage (%): 30%
[2]; Time 10 min after adding 0.6 M NaCl
  Persistence of DNA Damage (%): 15%

## CC[C@@]1(O)C(=O)OCc2c1cc1n(c2=O)C(N(NC(=O)OC(C)(C)C)C(=O)OC(C)(C)C)c2cc3ccccc3nc2-1 (single isomer, unassigned) [5-di-tert-butoxycarbonyl-hydrazinocamptothecin Isomer 1, 5-di-t-butoxycarbonylhydrazino-camptothecin 1st diastereomer]
[1]; [6]
  IC50: 50 µg/mL (≈ 86.4 µM)

## CC[C@@]1(O)C(=O)OCc2c1cc1n(c2=O)C(N=[N+]=[N-])c2cc3ccccc3nc2-1 (single isomer, unassigned) [5-N3-camptothecin Isomer 2, 5-N3-camptothecin 2nd diastereomer]
[1]; [5]
  NCl-H460 IC50 (μg/mL) Cell count: 2.59 ± 0.7 µg/mL
